Experimental data: patent US8703698B2, “Compositions and methods for treating atherosclerosis” (The University of Chicago, priority 2003, dated 2014)

Legend:
J774 macrophages = test: [3H]cholesterol efflux from cholesterol-loaded J774 macrophages in tissue culture; format: cell-based, mouse; settings: for 3H-cholesterol exported into the media after 24 hours (FIG. 19): peptide/lipid mixture by microfluidizer
NR8383 cells = test: Cholesterol export from rat NR8383 macrophages; format: cell-based; settings: peptide/lipid mixture by microfluidizer
Description: In these experiments, mouse J774 cells, human THP-1 cells and rat NR8383 cells were loaded with red blood cell membranes containing ^3H-cholesterol in accordance with procedures outlined in Example 4. The peptides were prepared as lipid mixtures using a microfluidizer procedure. Briefly, 3 mg of the 20-mer synthetic peptide (SEQ ID NO:30) or the 19-mer synthetic peptide (SEQ ID NO:12) was mixed with 5 ml cyclohexane and sonicated (output power of 14 watts) for 20-seconds followed by a 10-second interval. Separately, 2-oleyl-1-palmitoyl-sn-glycero-3-phosphocholine (Sigma-Aldrich P3017; 67.8 mg) and cholesterol (9.66 mg) were dissolved in 2 ml of chloroform, vortexed and transferred to a 500 ml round bottom flask. The two mixtures (i.e. cyclohexane/peptide and phosphatidylcholine/cholesterol solutions) were then combined. The combined solution was dried using nitrogen gas while swirling the flask, resulting in a thin layer of lipid at the bottom half of the flask. In order to ensure that the thin layer of lipid residue was completely dry, nitrogen gas was streamed over the lipid layer for an additional 10 minutes. […] Efficacy of the peptides was determined as the amount ^3H-cholesterol exported into the media after 24 hours. […]

[1] = system: [3H]-cholesterol-loaded J774 macrophages; test: In vivo cholesterol efflux to plasma in mice injected with [3H]-cholesterol-loaded J774 macrophages; settings: for 3H-cholesterol export into the plasma, dose response (FIGS. 17 and 18): liposome formulated, intravenous, 2, 4, 8, 16 or 32 μg/100 μl per mouse, 6 to 48 hours; for radiolabeled cholesterol exported in the plasma (FIG. 15): non-liposome formulated, in 100 μl PBS, intravenous, 15 μg/mouse peptide or 75 μg/mouse full length protein
Description: In these experiments, in vivo cholesterol export was determined in mice injected with J774 macrophages cholesterol-loaded with RBC membranes and [^3H]-cholesterol. Two hundred thousand macrophages in 100:1 PBS were injected into each mouse through the tail vein. At various time points thereafter, approximately 25:1 of blood were collected from the tail vein of each animal into heparinized capillary tubes. The tubes were then centrifuged for 5 minutes in an Adams Autocrit Centrifuge to separate red blood cells from plasma. Cholesterol efflux was determined by measuring the appearance of [^3H]-cholesterol in plasma by scintillation spectrometry. To study whether export of cholesterol from J774 cells to plasma was influenced by non-liposome formulated D-27mer peptide (SEQ ID NO:10), 24 hours after injection of cholesterol-loaded J774 macrophages into mice, the same animals received, by intravenous injection, 30 μg, 60 μg, 150 μg, 225 μg, 300 μg or 600 μg of D-27mer. All these amounts of D-peptides were dissolved in 100:l of phosphate buffered saline and injected through the tail vein of each animal.
Additional in vivo studies have also been conducted wherein mice were first injected intravenously with [^3H]cholesterol-laden macrophages and then injected 24 hours later with liposomes containing 0.5 μM of synthetic peptides corresponding to amino acid residues 1-20, 21-50, 51-80 or 74-103 of murine SAA2.1. Results from this study are depicted in FIG. 1. At time points indicated in the graph of FIG. 1, approximately 25 μl of blood were collected from the tail vein of each animal. The blood samples were centrifuged to separate the red blood cells from the plasma and the [^3H]-cholesterol in plasma was determined by scintillation counting. Results are mean±SEM of four determinations.
To determine cholesterol export in vivo, J774 macrophages were cholesterol-loaded with red blood cell membranes and [^3H]-cholesterol as described above. Cells were washed four times with PBS/BSA and then detached from the culture dishes. Five million cells in 200 μl DMEM were injected into control mice or inflamed mice through the tail vein. At various time points, approximately 25 μl of blood were collected from the tail vein of each animal into heparinized capillary tubes and then centrifuged for 5 minutes in an Adams Autocrit Centrifuge to separate red blood cells from plasma. Cholesterol efflux was determined by measuring the appearance of [^3H]-cholesterol in plasma by scintillation spectrometry.
J774 cells cultured in 6-well plates were enriched with cholesterol by incubating with red blood cell (RBC) membrane fragments (175:g as cholesterol) that had been previously labeled with 0.5:Ci/ml [^3H]-cholesterol at 37° C. for 24 hours in 0.2% bovine serum albumin (BSA). After loading with the labelled RBC membrane for 6 hours, cells were then washed with phosphate-buffered saline/BSA (PBS/BSA) three times followed by an 18 hour equilibration period during which monolayers were exposed to DMEM/BSA. To determine cholesterol export in vivo, J774 macrophages were cholesterol-loaded with RBC membranes and [^3H]-cholesterol as described previously above. Cells were washed four times with PBS/BSA and then detached from the culture dishes. Two hundred thousand cells in 100:l PBS were injected into mice through the tail vein. At various time points thereafter, approximately 25:l of blood were collected from the tail vein of each animal into heparinized capillary tubes. These tubes were then centrifuged for 5 minutes in an Adams Autocrit Centrifuge to separate red blood cells from plasma. Cholesterol efflux was determined by measuring the appearance of [^3H]-cholesterol in plasma by scintillation spectrometry. […]

THP-1 cells = test: Cholesterol efflux from cholesterol-laden human THP-1 cells; format: cell-based; settings: for 3H-cholesterol exported into the media after 24 hours (FIG. 19): peptide/lipid mixture by microfluidizer, human THP-1 cells
[2] = biological target: T1, acyl CoA:cholesterol acyl transferase (Mus musculus, UniProt Q61263); settings: intact murine macrophages and post-nuclear homogenates; Ely et al. 2001; cited from earlier work
T1 construct: The relative activity of acyl CoA:cholesterol acyl transferase was determined in cholesterol-laden cells; host or cells: J774 mouse macrophages, cholesterol-loaded
T1 sequence (Q61263 1-540): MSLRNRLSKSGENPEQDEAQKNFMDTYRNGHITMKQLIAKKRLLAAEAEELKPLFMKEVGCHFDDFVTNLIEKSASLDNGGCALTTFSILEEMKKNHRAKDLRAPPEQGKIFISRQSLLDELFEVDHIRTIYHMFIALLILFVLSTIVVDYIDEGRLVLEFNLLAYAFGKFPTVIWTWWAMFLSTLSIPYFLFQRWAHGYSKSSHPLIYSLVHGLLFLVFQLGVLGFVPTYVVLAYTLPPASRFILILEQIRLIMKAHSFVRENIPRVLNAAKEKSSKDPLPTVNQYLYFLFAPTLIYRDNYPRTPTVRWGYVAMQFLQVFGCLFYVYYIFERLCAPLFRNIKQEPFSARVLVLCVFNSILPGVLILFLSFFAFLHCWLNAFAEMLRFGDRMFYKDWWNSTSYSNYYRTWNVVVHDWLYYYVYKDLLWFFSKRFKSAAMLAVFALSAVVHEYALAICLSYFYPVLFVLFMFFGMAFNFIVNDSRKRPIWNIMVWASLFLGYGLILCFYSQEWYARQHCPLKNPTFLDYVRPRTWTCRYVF

[3] = system: hepatic, macrophage, and pancreatic cholesterol esterase; settings: Lindhorst 1997; Ely 2001; Tam 2002; cited from earlier work
[4] = biological target: macrophage acyl CoA:cholesterol acyl transferase (murine)
[5] = biological target: macrophage cholesterol ester hydrolase (murine)

For “ADQAANEWGRSGKDPNHFR [SEQ ID NO:12, consensus 19-mer, residues 78-96 of human SAA1.1]”, the “cholesterol export enhancing activity, time course (FIG. 9)” value (J774 macrophages; liposomal formulations, mouse J774 cells) was “greatest cholesterol export enhancing activity”, the “increase of cholesterol efflux with dose compared to mouse peptide SEQ ID NO:4 (FIGS. 5A and 5B)” value (J774 macrophages; liposomes, 0.05 to 5.0 μM, macrophages) was “at least as effective if not more effective” and the “3H-cholesterol exported into the media after 24 hours (FIG. 19)” value (“3H-cholesterol exported into the media” below) (J774 macrophages; mouse J774 cells) was “equally effective in inducing cholesterol export”. The “3H-cholesterol exported into the media” value (NR8383 cells) was “equally effective in inducing cholesterol export”, the “3H-cholesterol export into the plasma, dose response (FIGS. 17 and 18)” value [1] was “increased efficacy as the dose increased” and the “radiolabeled cholesterol exported in the plasma (FIG. 15)” value [1] was “no effect on cholesterol efflux”. The “cholesterol efflux, time course at various concentrations (FIG. 6)” value (THP-1 cells; liposomal formulations, 0.05 to 5.0 μM) was “continued to increase over a time period from 0 to 24 hours” and the “3H-cholesterol exported into the media” value (THP-1 cells) was “equally effective in inducing cholesterol export”.

For “RSFFSFLGEAFDGARDMWRA [SEQ ID NO:30, 20-mer, residues 1-20 of human SAA1.1 or SAA2.1]”, the “3H-cholesterol exported into the media” value (J774 macrophages; mouse J774 cells) was “equally effective in inducing cholesterol export”, the “3H-cholesterol exported into the media” value (NR8383 cells) was “equally effective in inducing cholesterol export” and the “3H-cholesterol export into the plasma, dose response (FIGS. 17 and 18)” value [1] was “increased efficacy as the dose increased”. For the same molecule, the “radiolabeled cholesterol exported in the plasma (FIG. 15)” value [1] was “no effect on cholesterol efflux” and the “3H-cholesterol exported into the media” value (THP-1 cells) was “equally effective in inducing cholesterol export”.

B1: KEANWKNSDKYFHARGNYDAAQRGPGGVWAAEKISDGREAFQEFFGRGHEDTIADQEAN RHGRSGKDPNYYRPPGLPDKY (protein)
chain: KEANWKNSDKYFHARGNYDAAQRGPGGVWAAEKISDGREAFQEFFGRGHEDTIADQEANRHGRSGKDPNYYRPPGLPDKY
notes: 80-mer cyanogen bromide fragment of murine SAA2.1, residues 24-103
In the case of B1, the “macrophage ACAT activity” value [2] is given as “no inhibitory effect on ACAT activity” and the “cholesterol esterase activities in vitro” value [3] is given as “effect was shown to reside”.

B2: synthetic peptide corresponding to amino acid residues 1-20 of murine SAA2.1 (peptide)
peptide: GFFSFVHEAFQGAGDMWRAY
For B2, the acyl CoA:cholesterol acyl transferase activity (incorporation of [14C]oleate into cholesteryl ester), cholesterol-laden murine cells, liposomes with 0.5 µM peptide, 6 hour incubation (fold decrease) [4] was 2.

B3: synthetic peptide corresponding to amino acid residues 74-103 of murine SAA2.1 (peptide)
peptide: DTIADQEANRHGRSGKDPNYYRPPGLPDKY
With B3 the rate of hydrolysis of [14C]-labeled cholesteryl oleate in J774 cells, re-esterification blocked with Sandoz 58-035 (fold increase) [5] was 3.
